Common to all, as to test: inhibition of tumour cell growth, NCI panel, 48 h
In assay [1] the test system is MDA-N.
Assay [2] relates to NCI-H226 lung.
Assay [3] concerns NCI-H460 lung.
Assay [4] concerns CAKI-1 renal.
Assay [5] has as its system 786-0 renal.
The subject of assay [6] is SW-620 colon.
In assay [7] the test system is SK-OV-3 ovarian.
Assay [8] has as its system UACC-62 melanoma.
Assay [9] concerns SNB-75 CNS.
Assay [10] concerns OVCAR-8 ovarian.
Assay [11] has as its system U251 CNS.
Assay [12] concerns SF-268 CNS.
For assay [13], the system named is MALME-3M melanoma.
Assay [14] deals with UO-31 renal.
Assay [15] relates to SR leukemia.
The subject of assay [16] is OVCAR-3 ovarian.
For assay [17], the system named is CCRF-CEM leukemia.
For assay [18], the system named is RXF 393 renal.

Molecules are shown by their SMILES.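 Exposure lasted 48 hours, with cells grown in 96-well plates and compounds tested at five concentrations. Definition used: TGI = concentration required for complete inhibition of growth.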 Some results are limits rather than exact numbers.

In the case of `COC(=O)C1(Cc2ccccc2)Cc2ccc3c(c2C1=O)CCC3` (stereo not given), the TGI in assay [1] is above 86.4 µM; in [2], above 100 µM; in assay [3], above 100 µM; in assay [4], above 100 µM; in assay [5], above 100 µM; in [6], above 100 µM. Further, the TGI in assay [7], in [8], in assay [9], in assay [10], in [11] and in assay [12] was above 100 µM each time. The TGI in assay [13] was 25.4 µM; in assay [14], above 100 µM; in [15] it was above 73.4 µM; in [16], above 100 µM; in [17], above 89.5 µM; in assay [18], above 69.5 µM.
Regarding `COc1ccccc1Cn1nc(OC)c2cc([N+](=O)[O-])ccc21`, the TGI was above 100 µM in assay [1]; above 100 µM in [2]; above 100 µM in assay [3]; above 53.6 µM in assay [4]; above 84.7 µM in assay [5]; above 100 µM in [6]. The TGI in assay [9] is 18.7 µM; in assay [10] it was above 100 µM; in assay [11] it was 29 µM; in [12] it was 36.9 µM; in assay [13], above 100 µM; in [14], above 79.6 µM. For the same compound, the TGI in [15] was above 100 µM; in [16], above 100 µM; in [17] it was above 100 µM; in [18], 11.2 µM.
Consider `Oc1ccc(Cn2c(-c3ccc(O)c(O)c3)nc3ccccc32)cc1O`, for which the TGI is above 100 µM in assay [1]; 22.4 µM in [2]; 63.4 µM in [3]; 54.6 µM in [4]; 29 µM in assay [5]; 42.1 µM in assay [6]. Moreover, the TGI was 59.6 µM in [7]; 39.4 µM in [9]; 25.5 µM in assay [10]; 47.1 µM in assay [11]; above 100 µM in [12]; 41.4 µM in [13]. The TGI in [14] was 47.3 µM; in assay [15] it was 18.2 µM; in [16] it was 41.3 µM; in assay [17], 32.8 µM; in [18], above 100 µM.
As for `CCOC(=O)CCC(NC(=O)c1ccc(OCc2nc3ccccc3n3cccc23)cc1)C(=O)OCC` (stereo not given), the TGI in [1], in [2], in assay [3], in assay [4], in assay [5] and in [6] was above 100 µM in each case. Moreover, the TGI in assay [7], in assay [8], in assay [9], in assay [10], in assay [11] and in [12] was above 100 µM each time. The TGI in [13], in assay [14], in assay [15], in assay [16], in [17] and in assay [18] was above 100 µM in each case.
Turning to `CCN(CC)CCCNc1nc2ccccc2c2[nH]c3ccc(OC)cc3c12`, the TGI turned out to be 2.99 µM in [1]; 9.83 µM in assay [2]; 1.57 µM in assay [3]; 8.25 µM in assay [4]; 2.41 µM in assay [5]; 2.37 µM in assay [6]. For the same compound, the TGI in assay [7] was above 10 µM; in assay [8], above 10 µM; in [9] it was 3.35 µM; in assay [10], 2.41 µM; in [11], 3.23 µM; in [12] it was 4.43 µM. The TGI in assay [13] is 3.41 µM; in assay [14], above 10 µM; in assay [15] it was 5.95 µM; in assay [16] it was above 10 µM; in assay [17], 3.87 µM; in [18], 2.96 µM.
Turning to `O=[N+]([O-])c1cc(-[n+]2cc([O-])on2)ccc1F`, the TGI in assay [1] was 30.7 µM; in [2], 47 µM; in assay [3] it was 39.3 µM; in [4], 4.2 µM; in [5] it was 24 µM; in [6], 38.3 µM. The TGI worked out at 35.8 µM in [7]; 30.8 µM in [8]; 27 µM in [9]; 30.9 µM in assay [10]; 32.4 µM in assay [11]; 28.9 µM in assay [12]. Besides, the TGI is 29 µM in assay [13]; 13.1 µM in assay [14]; above 100 µM in assay [15]; 32.6 µM in assay [16]; 38.6 µM in assay [17]; 27.2 µM in assay [18].
As for `N#CC(c1cc2c(cc1Br)OCO2)N1CCOCC1` (stereo not given), the TGI in assay [1], in [2], in [3], in assay [4], in [5] and in assay [6] was above 100 µM each time. Moreover, the TGI was above 100 µM in assay [7]; above 100 µM in [8]; 99.6 µM in assay [9]; above 100 µM in assay [10]; above 100 µM in assay [12]; above 100 µM in assay [13]. Moreover, the TGI in assay [14] is above 100 µM; in [15], 60.3 µM; in assay [16], above 100 µM; in assay [17] it was above 100 µM; in assay [18], 51.6 µM.
With `CN(C)c1nc(-c2ccccc2)c(C(=O)c2c[nH]c3ccccc23)s1`, the TGI in assay [1] is 20.2 µM; in [2], above 100 µM; in assay [3], above 79.2 µM; in [4] it was above 100 µM; in [5] it was above 47.6 µM; in [6], above 100 µM. Further, the TGI is above 100 µM in assay [7]; above 100 µM in assay [8]; 7.71 µM in assay [9]; above 100 µM in assay [10]; above 100 µM in [11]; above 100 µM in assay [12]. Besides, the TGI was above 100 µM in assay [13]; above 100 µM in [14]; above 100 µM in [15]; above 94.4 µM in assay [16]; above 60.5 µM in [17]; above 91.5 µM in assay [18].

Source of the values: PubChem BioAssay (NCI).
